Tests used:
[1] = system: N^α -acetyltransferase activity of crude yeast lysate, wild-type (AAA1) strain T3A; experiment: N^α -acetylation of peptide substrates by crude yeast lysate, wild-type strain; assay type: biochemical, Saccharomyces cerevisiae; conditions: for Activity (%) AAA1: crude lysate of wild-type strain T3A, mean ± SD (N=3-5), normalized to human adrenocorticotropic hormone (1-24), 50 μM peptide
Procedure: (§1) N^α -acetyltransferase activity was determined as previously described [Lee et al., J. Biol. Chem. 263:14948-14955 (1988)]. Aliquots of the lysate or chromatographic fractions were added to 1.5 ml Eppendorf tubes containing a reaction mixture of 50 mM HEPES, pH 7.4, 150 mM KCl, 1 mM DTT, 25 μM [^3 H] acetyl coenzyme A (0.5 μCi) and 50 μM synthetic peptide with an adjusted final volume of 100 μl. The assay mixture was incubated at 30° C. for 30 min. The reaction was stopped by adding 17 μl of 0.5M acetic acid and chilled in an ice bath. The reaction samples were filtered through SP membrane discs (Cuno) (previously pre-swollen in 0.5M acetic acid), and then washed three times with 1 ml of 0.5M acetic acid on a Millipore 1225 sampling manifold. The partially dried membranes were placed in scintillation cocktail and counted with a Beckman LS 3801 scintillation counter. One unit of activity was defined as the amount of enzyme able to transfer 1 pmol of [^3 H] acetyl group from [^3 H] acetyl coenzyme A to synthetic peptide per min under standard enzyme assay conditions defined above.
(§2) The wild-type (containing endogenous N^α -acetyltransferase activity) and the aaa1 (lacking endogenous N^α -acetyltransferase activity) strains were T3A and T3A-a, respectively (Lee, F-J. S., et al., J. Bacteriol. 171, 5795-5802 (1989)). Human adrenocorticotropic hormone (1-24), yeast alcohol dehydrogenase (1-24), and human superoxide dismutase (1-24) have either serine or alanine as amino-terminal residues, while proteinase A inhibitor 3 has a methionine residue. The synthesis of the peptide substrates, the preparation of the crude yeast homogenate, and the assay of enzyme activity were as previously described by Lee et al. (Lee, F-J. S., et al., J. Biol. Chem. 263:14948 (1988); Kamitani, K., et al., J. Biol. Chem. 264:13188 (1989)). The numbers in parentheses refer to the residue numbers, and the letters in parentheses specify the amino acid sequence. Abbreviations: A (alanine), C (cysteine), D (aspartic acid), E (glutamic acid), F (phenylalanine), G (glycine), H (histidine), I (isoleucine), K (lysine), L (leucine), M (methionine), N (asparagine), P (proline), Q (glutamine), R (arginine), S (serine), T (threonine), V (valine), W (tryptophan). Data are reported as mean activity±SD (N=3-5) and are normalized to the activity of the homogenate towards human adrenocorticotropic hormone (1-24).

[2] = target: T1, N^α -acetyltransferase activity of crude yeast lysate, aaa1 mutant strain T3A-a (Saccharomyces cerevisiae, UniProt Q06504); experiment: N^α -acetylation of peptide substrates by crude yeast lysate, aaa1 mutant strain; assay type: biochemical; conditions: for Activity (%) aaa1: crude lysate of aaa1 mutant strain T3A-a, mean ± SD (N=3-5), normalized to human adrenocorticotropic hormone (1-24), 50 μM peptide
T1 construct: a crude yeast homogenate from the aaa1 mutant strain; endogenous in cells; host or cells: Saccharomyces cerevisiae strain T3A-a (aaa1), crude lysate
T1 sequence (Q06504 1-195): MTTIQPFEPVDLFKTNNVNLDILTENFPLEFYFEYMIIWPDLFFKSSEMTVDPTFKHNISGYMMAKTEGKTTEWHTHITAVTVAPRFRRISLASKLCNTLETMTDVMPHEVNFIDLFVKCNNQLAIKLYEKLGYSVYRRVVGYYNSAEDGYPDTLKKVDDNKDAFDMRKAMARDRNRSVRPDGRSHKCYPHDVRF
T1 sequence (Q12387 1-796 partner): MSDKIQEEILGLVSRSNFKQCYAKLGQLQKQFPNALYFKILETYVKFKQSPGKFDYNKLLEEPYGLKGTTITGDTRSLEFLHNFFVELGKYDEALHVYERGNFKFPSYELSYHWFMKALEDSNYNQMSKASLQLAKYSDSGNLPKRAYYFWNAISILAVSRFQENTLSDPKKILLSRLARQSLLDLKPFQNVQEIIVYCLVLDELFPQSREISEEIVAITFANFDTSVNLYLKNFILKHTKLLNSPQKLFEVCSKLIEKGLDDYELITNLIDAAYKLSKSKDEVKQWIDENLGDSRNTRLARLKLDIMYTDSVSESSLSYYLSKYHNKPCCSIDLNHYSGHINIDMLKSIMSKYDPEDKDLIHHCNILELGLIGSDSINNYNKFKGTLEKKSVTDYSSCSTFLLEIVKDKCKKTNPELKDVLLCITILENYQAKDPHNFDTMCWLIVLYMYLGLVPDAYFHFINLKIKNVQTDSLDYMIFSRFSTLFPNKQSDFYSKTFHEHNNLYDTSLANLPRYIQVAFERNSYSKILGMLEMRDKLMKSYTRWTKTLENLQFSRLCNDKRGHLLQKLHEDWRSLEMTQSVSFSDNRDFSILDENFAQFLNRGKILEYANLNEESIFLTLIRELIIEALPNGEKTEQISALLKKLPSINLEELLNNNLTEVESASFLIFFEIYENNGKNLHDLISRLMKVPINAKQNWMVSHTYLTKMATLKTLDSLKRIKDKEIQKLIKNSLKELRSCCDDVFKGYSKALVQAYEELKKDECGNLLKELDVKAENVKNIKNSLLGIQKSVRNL
Procedure: as §1, §2

For “SYSMEHFRWGKPVGKKRRPVKVYP”, the “Activity (%) AAA1” value [1] was 100 ± 5% and the “Activity (%) aaa1” value [2] was 0%.

“SIPETQKGVIFYESHGKLEYKDIP (SIPETQKGVIFYESHGKLEYKDIP) [Alcohol dehydrogenase (1-24) (Yeast)]” was tested, and the “Activity (%) AAA1” value [1] was 102 ± 5% and the “Activity (%) aaa1” value [2] was 0%.

With “MNTDQQKVSEIFQSSKEKLQGDAK (MNTDQQKVSEIFQSSKEKLQGDAK) [Proteinase A Inhibitor 3 (1-24) (Yeast)]” the “Activity (%) AAA1” value [1] was 75 ± 5%, the “acetylation of the peptide substrate by wild-type strain” value ([1]; crude lysate, wild-type strain) was “capable of acetylating” and the “Activity (%) aaa1” value [2] was 80 ± 5%. The “acetylation of the peptide substrate by aaa1 mutant” value ([2]; crude lysate, aaa1 mutant) was “capable of acetylating”.

Source: patent US5223421A, “Identification of methionine Nα-acetyltransferase” (The General Hospital Corporation, priority 1990, dated 1993)
